PMC12655819 (Pharmaceuticals, 2025)
Marks after values point to notes of the source that are not given here.

What was measured:
[1] = Stability of analytes in dried saliva Mitra VAMS tips; format: physicochemical; details: dried saliva on Mitra VAMS tips, room temperature (light-protected with desiccant), n=6
Method: Stability testing, a crucial component of method development and validation, was conducted through various experiments, including storage stability in the autosampler and stability of analytes in VAMS tips under different stress conditions. Analyte stability is deemed acceptable if the differences stay within the nominal range of ±15%. Additionally, the reproducibility of the injection was assessed during autosampler stability testing.

[2] = Pharmacokinetics from plasma unbound levels in plasma ultrafiltrate (fMPA, fMPAG); format: in vivo, human; details: free level in plasma ultrafiltrate
Method: (§1) The AUC0–4, Tmax, and Cmax parameters were calculated using the R (version 4.5.1) package software (R Core Team, 2025), supported by RStudio (version 2025.05.1+513) from Posit PBC software (Boston, MA, USA). […] The vMPA and vMPAG capillary blood levels were corrected using formulas validated in our department (partially published by Kocur et al.) and expressed as estimated capillary plasma concentrations. […] Individual PK profiles for each patient included in the study are provided in the Supplementary File (Figures S4 and S5).
Next, the sample was centrifuged at 3000× g for 5 min at ambient conditions, and the supernatant was transferred into a chromatographic vial. Sample processing was performed at the Department of Drug Chemistry, Pharmaceutical and Biomedical Analysis, Medical University of Warsaw, Poland.
(§2) From each patient (if they consented to all sampling types), four samples were collected simultaneously at all defined time points of the dynamic PK profile (0, 0.5, 1, 2, and 4 h after drug administration). Whole blood was collected using standard venipuncture by a phlebotomist into a K3-EDTA test tube (Sarstedt, Nümbrecht, Germany). Plasma for analytical determination was obtained by centrifuging a portion of the whole blood and stored at −40 °C until assay. At the same time, 10 µL capillary blood samples were collected from a finger prick using the Mitra™ device (VAMS samples were stored in light-protected aluminum zip bags with desiccant at room temperature).

[3] = cited from earlier work
[4] = Pharmacokinetics from liquid (wet) saliva collected with Salivette (sMPA, sMPAG); format: in vivo, human
Method: as §1
The concentrations of sMPA and sMPAG in saliva were determined using a previously described LC-MS/MS method. Briefly, 100 µL of saliva was used for analysis. […] Samples were vortexed and evaporated to dryness. The dry residues were reconstituted in 100 μL of a mobile phase consisting of a 1:4 (v/v) mixture of methanol and water, both of which contained 0.1% formic acid. After double centrifugation, the samples were analyzed using a Shimadzu Ultra-Performance Liquid Chromatography (UPLC) system (Shimadzu Co., Kyoto, Japan) coupled with a triple quadrupole mass spectrometer (LCMS-8030; Simadzu Co., Kyoto, Japan). The method was linear over the concentration range of 2–500 μg/L for both sMPA and sMPAG. This part of the work was carried out with the support of the Centre of Innovative Pharmaceutical Technology, Poznan University of Medical Sciences (Poznan, Poland).
Additionally, the unstimulated saliva samples were simultaneously collected using the Salivette® device (Sarstedt, Nümbrecht, Germany) and Mitra™ 20 µL microsampling tips (Neoteryx/Trajan, Torrance, CA, USA (all saliva samples simultaneously to plasma and capillary blood sampling: 0, 0.5, 1, 2, and 4 h after drug administration). Patients had not eaten for at least 30 min before saliva collection, and their mouths were rinsed with water. The study was conducted in accordance with the Declaration of Helsinki and the International Council for Harmonization Guideline for Good Clinical Practice. The protocol was approved by the Bioethics Committee of the Children’s Memorial Health Institute, Warsaw, Poland (approval No. 15/KBE/2023, with subsequent amendments). Written informed consent was obtained from all participants and their legal guardians.

[5] = Pharmacokinetics from total plasma levels (tMPA, tMPAG), LC-MS/MS; format: in vivo, human; details: total plasma level
Method: as §1
Briefly, 50 μL of plasma was diluted with 90 μL of deionized water, and 10 μL of IS (d3-MPA) was added. Next, 400 μL of the precipitation mixture (a 0.1 M aqueous zinc sulfate solution and acetonitrile, 50:50 (v/v)) was added. The sample was then shaken for 10 min at room temperature using an automatic rotary vortex (Ohaus, Parsippany, NJ, USA) and centrifuged for 10 min at 13,500× g at 4 °C thereafter. The supernatant was transferred into chromatographic vials and analyzed using LC-MS/MS. Sample processing was performed at the Department of Drug Chemistry, Pharmaceutical and Biomedical Analysis, Medical University of Warsaw, Poland.
as §2

[6] = Pharmacokinetics from capillary blood collected with Mitra VAMS (vMPA, vMPAG); format: in vivo, human
Method: as §1
Subsequently, the tip (after at least 1 h of drying) was placed in an 1.5 mL Eppendorf-type test tube (Eppendorf AG, Hamburg, Germany) containing 150 μL of pure deionized water. Next, the test tube was shaken at room temperature for 1 h using the automatic rotary vortex. Subsequently, 10 μL of IS solution and 150 μL of the precipitation mixture were added. The sample was then processed as described in Section 4.3.4. Sample processing was carried out at the Department of Drug Chemistry, Pharmaceutical and Biomedical Analysis, Medical University of Warsaw, Poland [21].
as §2

[7] = normalized to MMF dose, n = 20, mean (range)
[8] = human, 0 h (pre-dose), n = 20, mean ± SD, read-out: C0 concentration
[9] = human, 0.5 h post-dose, n = 20, mean ± SD, read-out: C0.5 concentration
[10] = human, 1 h post-dose, n = 20, mean ± SD, read-out: C1 concentration
[11] = human, 2 h post-dose, n = 20, mean ± SD, read-out: C2 concentration
[12] = human, 4 h post-dose, n = 20, mean ± SD, read-out: C4 concentration

SMILES: COc1c(C)c2c(c(O)c1C/C=C(\C)CCC(=O)O)C(=O)OC2 [MPA, Mycophenolic acid]
- recovery at 1 week ([1]; HQC): 97.2%
- recovery at 2 weeks ([1]; HQC): 96%
- recovery at 24 hours ([1]; HQC): 99.9%
- recovery at 3 days ([1]; HQC): 100%
- recovery at 1 week ([1]; LQC): 98%
- recovery at 2 weeks ([1]; LQC): 95.6%
- recovery at 24 hours ([1]; LQC): 101%
- recovery at 3 days ([1]; LQC): 99.1%
- AUC(0–4) Normalized to Drug Dose [2, 7]: 0.596 (0.042–1.577) ^d mg × h/mL × g
- concentration at 0 h ([2]; human, plasma ultrafiltrate (unbound level in EDTA plasma), 0 h (pre-dose), n = 20, mean ± SD, read-out: C0 concentration): 22 ± 16 ng/mL
- concentration at 0.5 h ([2]; human, plasma ultrafiltrate (unbound level in EDTA plasma), 0.5 h post-dose, n = 20, mean ± SD, read-out: C0.5 concentration): 104 ± 125 ng/mL
- concentration at 1 h ([2]; human, plasma ultrafiltrate (unbound level in EDTA plasma), 1 h post-dose, n = 20, mean ± SD, read-out: C1 concentration): 149 ± 146 ng/mL
- concentration at 2 h ([2]; human, plasma ultrafiltrate (unbound level in EDTA plasma), 2 h post-dose, n = 20, mean ± SD, read-out: C2 concentration): 49 ± 41 ng/mL
- concentration at 4 h ([2]; human, plasma ultrafiltrate (unbound level in EDTA plasma), 4 h post-dose, n = 20, mean ± SD, read-out: C4 concentration): 31 ± 50 ng/mL
- Cmax ([2]; human, plasma ultrafiltrate (unbound level in EDTA plasma), pediatric renal transplant recipients (n = 20) on MMF (CellCept), steady state, 0–4 h post-dose, mean (range), read-out: Cmax): 160 ng/mL
- AUC(0-t) ([2]; human, plasma ultrafiltrate (unbound level in EDTA plasma), pediatric renal transplant recipients (n = 20) on MMF, mean (range)): 276 ng·h/mL
- Tmax ([2]; human, plasma ultrafiltrate (unbound level in EDTA plasma), pediatric renal transplant recipients (n = 20) on MMF, mean (range), read-out: Tmax): 54 min
- increase in free fraction ([3]; displacement by MPAG in severe renal impairment): 7%
- affinity for plasma proteins (binding) ([3]; general statement of the introduction): 97–99%
- time of peak plasma concentration after administration ([3]; plasma): 1 to 2 h
- unbound fraction ([3]; typical range): 1 to 2.5%
- concentration at 0 h ([4]; human, unstimulated, Salivette, wet saliva, 0 h (pre-dose), n = 20, mean ± SD, read-out: C0 concentration): 8.24 ± 5.66 ng/mL
- concentration at 0.5 h ([4]; human, unstimulated, Salivette, wet saliva, 0.5 h post-dose, n = 20, mean ± SD, read-out: C0.5 concentration): 27.2 ± 7.86 ng/mL
- concentration at 1 h ([4]; human, unstimulated, Salivette, wet saliva, 1 h post-dose, n = 20, mean ± SD, read-out: C1 concentration): 51.6 ± 45.8 ng/mL
- concentration at 2 h ([4]; human, unstimulated, Salivette, wet saliva, 2 h post-dose, n = 20, mean ± SD, read-out: C2 concentration): 17.7 ± 16.1 ng/mL
- concentration at 4 h ([4]; human, unstimulated, Salivette, wet saliva, 4 h post-dose, n = 20, mean ± SD, read-out: C4 concentration): 8 ± 9.49 ng/mL
- AUC(0-t) ([4]; human, unstimulated, Salivette, wet saliva, pediatric renal transplant recipients (n = 20) on MMF, mean (range)): 107 ng·h/mL
- Tmax ([4]; human, unstimulated, Salivette, wet saliva, pediatric renal transplant recipients (n = 20) on MMF, mean (range), read-out: Tmax): 51 min
- Cmax ([4]; human, wet saliva (unstimulated, Salivette), pediatric renal transplant recipients (n = 20) on MMF, 0–4 h post-dose, mean (range), read-out: Cmax): 83.5 ng/mL
- AUC(0–4) Normalized to Drug Dose ([4]; wet saliva, normalized to MMF dose, n = 20, mean (range)): 300.18 (32.29–2716.80) ^c µg × h/mL × g
- Tmax ([5]; human, plasma, pediatric renal transplant recipients (n = 20) on MMF, mean (range), read-out: Tmax): 30 to 60 min
- concentration at 0 h [5, 8]: 2150 ± 1620 ng/mL
- concentration at 0.5 h [5, 9]: 10700 ± 9560 ng/mL
- concentration at 1 h [5, 10]: 11400 ± 6810 ng/mL
- concentration at 2 h [5, 11]: 4680 ± 3410 ng/mL
- concentration at 4 h [5, 12]: 2230 ± 2390 ng/mL
- Cmax ([5]; human, pediatric renal transplant recipients (n = 20) on MMF (CellCept), steady state, 0–4 h post-dose, mean (range), read-out: Cmax): 14400 ng/mL
- AUC(0-t) ([5]; human, pediatric renal transplant recipients (n = 20) on MMF, mean (range)): 23800 ng·h/mL
- AUC(0–4) Normalized to Drug Dose [5, 7]: 83.67 (22.44–447.22) ^d mg × h/mL × g
- Tmax ([5]; pediatric renal transplant recipients (n = 20) on MMF, mean (range), listed as tMPA): 0.78 (0.50–1.00) h
- concentration at 0 h [6, 8]: 1800 ± 1300 ng/mL
- concentration at 0.5 h [6, 9]: 9660 ± 8960 ng/mL
- concentration at 1 h [6, 10]: 10100 ± 5970 ng/mL
- concentration at 2 h [6, 11]: 4430 ± 3000 ng/mL
- concentration at 4 h [6, 12]: 1770 ± 2010 ng/mL
- AUC(0-t) ([6]; human, corrected to estimated capillary plasma concentration, n = 20, mean (range)): 21400 ng·h/mL
- Cmax ([6]; human, corrected to estimated capillary plasma concentration, pediatric renal transplant recipients (n = 20) on MMF, mean (range), read-out: Cmax): 12900 ng/mL
- Tmax ([6]; human, pediatric renal transplant recipients (n = 20) on MMF, mean (range), read-out: Tmax): 46.8 min
- AUC(0–4) Normalized to Drug Dose [6, 7]: 68.95 (20.71–444.79) ^d mg × h/mL × g
